# From the RepoRT retention time repository (doi:10.1016/j.jhazmat.2019.121712)
# Assay: Thermo Scientific Acclaim RSLC 120 C18, 100 × 2.1 mm, 2.2 µm, 30 °C; A: 90% water + 10% methanol + 0.01% formic acid + 5 mM ammonium formate; B: methanol + 0.01% formic acid + 5 mM ammonium formate; gradient (min/%B) 0.1/1 3/39 14/99.9 16/99.9
# Settings: stereoisomer not certain
row,Compound,LC retention time [min]
1,CCCC(C(=O)c1ccc2c(c1)OCO2)N1CCCC1 (centres undefined),5.18
2,CNC(=O)C(=NOC)c1ccccc1COc1cc(C)ccc1C,10.7
3,CCCCCn1cc(C(=O)Cc2ccccc2OC)c2ccccc21,11.8
4,CCCN(CC)CC1COC2(CCC(C(C)(C)C)CC2)O1 (centres undefined),9.32
5,C=C(C)C1CCC(C)=CC1c1c(O)cc(CCCCC)cc1O (centres undefined),12.7
6,C[N+](C)([O-])CCC(c1ccccc1)c1ccccn1 (centres undefined),5.39
7,COP(=O)(OC)OC(C)=CC(=O)OC(C)c1ccccc1 (centres undefined),9.39
8,CNCC(O)c1ccc(O)cc1 (centres undefined),1.6
9,COc1nccnc1NS(=O)(=O)c1ccc(N)cc1,4.44
10,CCS(=O)(=O)CCSP(=O)(OC)OC,4.15
11,CC(=O)Nc1c(C)n(C)n(-c2ccccc2)c1=O,3.94
12,CNc1nc(C)c(C)c(OC(=O)N(C)C)n1,5.89
13,CCCCCCCCCCOc1cc2c(=O)c(C(=O)OCC)c[nH]c2cc1OCC,13.4
14,CCOc1ccc(C(C)(C)COCc2cccc(Oc3ccccc3)c2)cc1,14.1
15,CCOP(=S)(OCC)SCCS(=O)(=O)CC,8.02
16,CNC(C)C(O)c1ccccc1 (centres undefined),3.76
17,CCC(CO)NCCNC(CC)CO (centres undefined),1.93
18,CN1CCC23c4c5ccc(OC6OC(C(=O)O)C(O)C(O)C6O)c4OC2C(O)C=CC3C1C5 (centres undefined),1.63
19,CCC(C)Nc1c([N+](=O)[O-])cc(C(C)(C)C)cc1[N+](=O)[O-] (centres undefined),13
20,Cc1cccc(Nc2ccncc2S(=O)(=O)NC(=O)NC(C)C)c1,6.67
21,CCCCCn1cc(C(=O)c2cccc3ccccc23)c2ccccc21,12.4
22,CC(C)N(C(=O)C(=O)O)c1ccccc1,5.13
23,O=C(c1ccccc1)c1ccc2n1CCC2C(=O)O (centres undefined),6.94

row,Compound,LC retention time [min]
1,CC1CCC2(OC1)OC1CC3C4CC=C5CC(O)CCC5(C)C4CCC3(C)C1C2C (centres undefined),15.1
2,COc1cccc(C(=O)CCNC(C)C(O)c2ccccc2)c1 (centres undefined),6.14
3,CCOC(=O)CC(SP(=S)(OC)OC)C(=O)OCC (centres undefined),9.59
4,CC(N)Cc1c[nH]c2ccccc12 (centres undefined),4.44
5,CN1CCC23c4c5ccc(O)c4OC2C(=O)CCC3C1C5 (centres undefined),2.91
6,CCCc1nn(C)c2c(=O)[nH]c(-c3cc(C(=O)CN4CCN(CCO)CC4)ccc3OCC)nc12,6.94
7,COC(=O)Nc1nc2ccc(S(=O)c3ccccc3)cc2[nH]1 (centres undefined),6.66
8,C=C1CC(=CC)C(=O)OC2CCN3CC=C(COC(=O)C1(C)O)C23 (centres undefined),4.17
9,CCOP(=S)(NC(C)C)Oc1ccccc1C(=O)OC(C)C (centres undefined),11.2
10,CCC1(C2OC(C3OC(O)(CO)C(C)CC3C)CC2C)CCC(C2(C)CCC3(CC(O)C(C)C(C(C)C(OC)C(C)C(=O)O)O3)O2)O1 (centres undefined),13.8
11,CC(N)Cc1ccc(O)cc1 (centres undefined),2.98
12,CC(=O)Nc1ccc(OCC(O)CNC(C)C)cc1 (centres undefined),3.34
13,c1ccc2[nH]c(-c3cscn3)nc2c1,6.15
14,CCCCCn1cc(C(=O)c2cccc3ccccc23)c2c(O)cccc21,12.5
15,CCCCCn1cc(C(=O)c2cccc3ccccc23)cc1-c1ccccc1C,13.4
16,Nc1ccc2c(c1)C(c1ccccc1)=NCC(=O)N2,4.78
17,Cc1ccnc(NS(=O)(=O)c2ccc(N)cc2)n1,3.95
18,CC1CC(C)C(=O)C(C(O)CC2CC(=O)NC(=O)C2)C1 (centres undefined),5.99
19,COc1ccc2c3c1OC1C(=O)CCC4(O)C(C2)N(C)CCC314 (centres undefined),3.61
20,Nc1nc(=S)c2[nH]cnc2[nH]1,2.53
21,COP(=S)(OC)Oc1ccc(S(C)(=O)=O)c(C)c1,7.57
22,CCCc1nn(C)c2c(=O)[nH]c(-c3cc(S(=O)(=O)N4CCN(CC)CC4)ccc3OCC)nc12,7.84
23,OCCOCCN1CCN(C2=Nc3ccccc3Sc3ccccc32)CC1,7.26

row,Compound,LC retention time [min]
1,COc1cc2c(cc1OC)C13CCN4CC5=CCOC6CC(=O)N2C1C6C5CC43 (centres undefined),4.21
2,CNC(=O)ON=C(C)C(C)S(C)(=O)=O (centres undefined),3.66
3,CCOP(=S)(OCC)Oc1ccc(S(C)=O)cc1 (centres undefined),8.27
4,COC(=O)Nc1nc2ccc(Sc3ccccc3)cc2[nH]1,10.3
5,C#CC1(O)CCC2C3CCC4=CC(=O)CCC4C3CCC21C (centres undefined),9.15
6,CCCc1nn(C)c2c(=O)[nH]c(-c3cc(S(=O)(=O)N4CCN(Cc5ccccc5)CC4)ccc3OCC)nc12,11.5
7,CC(=O)CC(c1ccccc1)c1c(O)c2ccccc2oc1=O (centres undefined),9.08
8,Nc1ccc(S(=O)(=O)Nc2nccs2)cc1,3.63
9,CC12CCC3c4ccc(O)cc4CCC3C1CC(O)C2O (centres undefined),6.83
10,CCNC1C2CCC(C2)C1c1ccccc1 (centres undefined),6.08
11,O=C(C1CCCCC1)N1CC(=O)N2CCc3ccccc3C2C1 (centres undefined),9.32
12,CCCCCc1cc(O)c2c(c1)OC(C)(C)C1CCC(C)=CC21 (centres undefined),14
13,O=C1OC(c2ccc(O)cc2)(c2ccc(O)cc2)c2ccccc21,7.06
14,CCN(CC)C(=O)C1C=C2c3cccc4[nH]cc(c34)CC2NC1 (centres undefined),5.56
15,COc1ccc(Cc2nccc3cc(OC)c(OC)cc23)cc1OC,6.27
16,CCOc1ccc2c(c1)C(C)=CC(C)(C)N2,10.1
17,COP(=S)(OC)Oc1ccc(C#N)cc1,8.27
18,CCNP(=S)(OC)OC(C)=CC(=O)OC(C)C (centres undefined),9.79
19,CC(CN(C)C)CN1c2ccccc2S(=O)(=O)c2ccccc21 (centres undefined),5.34
20,Nc1nc2c(ncn2CCC(CO)CO)c(=O)[nH]1,2.98
21,S=c1[nH]c2ccccc2s1,6.89
22,CCCCCn1cc(C(=O)c2cccc3ccccc23)c2cc(O)ccc21,11.3
23,CNC(=O)CSP(=S)(OC)OC,5.23

row,Compound,LC retention time [min]
1,CCOP(=S)(OCC)Oc1cc(C)nc(N(CC)CC)n1,12.3
2,CNCCC=C1c2ccccc2CCc2ccccc21,8.51
3,CC=C1CC(C)C(O)(CO)C(=O)OCC2=CC[N+]3([O-])CCC(OC1=O)C23 (centres undefined),4.33
4,COc1cc(CC(C)N)c(OC)cc1C (centres undefined),5.83
5,COc1cc(OC)nc(NC(=O)NS(=O)(=O)c2c(-c3nnn(C)n3)cnn2C)n1,7.62
6,CCCc1ccc(C(=O)c2cn(CCC)c3ccccc23)c2ccccc12,12.7
7,CCOP(=S)(OCC)SCCSCC,11.5
8,CCOP(=S)(OCC)ON=C(C#N)c1ccccc1,11.2
9,COCCCOc1cc(CC(CC(N)C(O)CC(C(=O)NCC(C)(C)C(N)=O)C(C)C)C(C)C)ccc1OC (centres undefined),8.87
10,CCOP(=S)(OCC)SCn1nnc2ccccc2c1=O,10.2
11,c1ccc2c(c1)Cc1ccccc1N1CCNCC21 (centres undefined),6.86
12,CN(C)CCc1c[nH]c2ccc(CC3COC(=O)N3)cc12 (centres undefined),3.61
13,CCCCCCCCCCCCOCCOCCOCCOCCO,13.5
14,COc1ccc2[nH]c(C)c(CCN(C)C)c2c1,4.19
15,CC(C)c1ccc(NC(N)=O)cc1,7.76
16,COC(=O)c1ccccc1C(=O)OC,6.63
17,COc1ccc2[nH]cc(CCN)c2c1,4.01
18,Cc1ncc(CSSCc2cnc(C)c(O)c2CO)c(CO)c1O,5.54
19,CC(C)C(O)(C(=O)OCC1=CCN2CCC(O)C12)C(C)O (centres undefined),3.65
20,CCOC(=O)CSc1nc(C(C)(C)C)nn1C(=O)N(C)C,6.38
21,CN1Cc2c(N)cccc2C(c2ccccc2)C1 (centres undefined),5.42
22,CCCc1nn(C)c2c(=S)nc(-c3cc(S(=O)(=O)N4CC(C)NC(C)C4)ccc3OCC)[nH]c12 (centres undefined),9.91
23,C=CC(N)CCC(=O)O (centres undefined),1.38

row,Compound,LC retention time [min]
1,CCN(CC)CC(C)(C)COC(=O)c1ccc(N)cc1,4.24
2,COc1ccc2[nH]cc(CCN(C)C)c2c1,3.98
3,CC12CCC3=C4CCC(=O)C=C4CCC3C1CCC2(O)CC#N (centres undefined),8.09
4,CN1CCOC(c2ccccc2)c2ccccc2C1 (centres undefined),5.67
5,CSc1nc(N=[N+]=[N-])nc(NC(C)C)n1,9.71
6,COC=C(C(=O)OC)c1ccccc1Oc1cc(Oc2ccccc2C#N)ncn1,9.02
7,CNC(=O)Oc1cccc(N=CN(C)C)c1,3.14
8,Cc1nn(C)c(Oc2ccccc2)c1C=NOCc1ccc(C(=O)OC(C)(C)C)cc1,13.2
9,CCCCCC(C)N (centres undefined),5.01
10,CNCCCC1c2ccccc2C=Cc2ccccc21,7.99
11,COc1ccc2c(c1OC)C(=O)OC2C1c2c(cc3c(c2OC)OCO3)CCN1C (centres undefined),6.96
12,CCN1CCCC1CNC(=O)c1cc(S(N)(=O)=O)ccc1O (centres undefined),3.18
13,CCSC(=O)N(CC(C)C)CC(C)C,12
14,NC(=O)CS(=O)C(c1ccccc1)c1ccccc1 (centres undefined),6.76
15,CCCCN(CCCC)SN(C)C(=O)Oc1cccc2c1OC(C)(C)C2,13.8
16,CCCCCn1cc(C(=O)c2ccccc2OC)c2ccccc21,11.2
17,CNC(=O)Oc1cc(C)c(SC)c(C)c1,9.34
18,CC(=O)c1cc2cccc(OCC(O)CNC(C)C)c2o1 (centres undefined),4.93
19,CC(=O)Nc1nnc(S(N)(=O)=O)s1,3.43
20,CC(C)Nc1nc(NC(C)C)[nH]c(=O)n1,5.96
21,COC(=O)C(Cc1ccccc1)NC(=O)C(CC(=O)O)NCCC(C)(C)C (centres undefined),8.83
22,CCC(c1cccc(O)c1)C(C)CN(C)C (centres undefined),5.01
